Measured values: patent publication US20090318493A1 (Roche Palo Alto LLC, priority 2008, published 2009)
Read-outs that look alike come from different tables or passages of the source.

Assays:
Format in all cases: binding
[1] = biological target: T1, hNET transporter (Homo sapiens, UniProt P23975); test: Human norepinephrine transporter (hNET) scintillation proximity assay, competition with [3H]-Nisoxetine
T1 construct: expressed in transfected cells; membranes prepared
Method: This assay was used to determine the affinity of ligands for the hNET transporter by competition with [^3H]-Nisoxetine. As in the hSERT assay of the above example, receptor-containing membranes were pre-coupled to the SPA beads and the binding of the appropriate radioligand to the transporter was measured. The light emission was proportional to the amount of bound radioligand, with unbound radioligand producing no signal.
HEK-293 cells (Tatsumi et al., Eur. J. Pharmacol. 1997, 30, 249-258) stably expressing recombinant hNET (Clone: HEK-hNET #2) were maintained with media (DMEM hi glucose with 10% FBS, 300 μg/ml G418 and 2 mM L-Glutamine) and incubated at 37° C. with 5% CO2. Cells were released from culture flasks using PBS for 1-2 minutes. The cells were subsequently centrifuged at 1000 g's for 5 minutes and resuspended in PBS prior to being used in the membrane preparation.
(§1) Cell membranes were prepared using a membrane preparation buffer of 50 mM TRIS (pH 7.4). Cell membranes were prepared from a single cube (7.5×10^9cells total). Cells were homogenized using a Polytron (setting medium for a 4 second burst). The homogenate was then centrifuged at 48,000×g for 15 minutes, the supernatant subsequently removed and discarded, and the pellet resuspended with fresh buffer. After a second centrifugation, the pellet was re-homogenized and brought to a final volume determined during the assay. Typically, membrane portions were aliquoted in 3-6 mg/mil (w:v). and stored at −80° C.
^3[H] […] Compounds of the invention were diluted from 10 mM to 0.1 nM FAC (10 point curves, whole log /half log dilutions) via a Beckman Biomek 2000 using a serial dilution protocol. The test compounds were then transferred (20 μl/well) and the radioligand was added at 50 μl/well. Membrane and beads were prepared to a ratio of 10 μg: 0.7 mg, with 0.7 mg PVT-WGA Amersham beads (Cat# RPQ0282V) added per well. 130 μl of the membrane: bead mixture was added to the assay plate. The mixtures were allowed to stand at room temperature for one hour, and were then counted on a Packard TopCount LCS, a generic SPA counting protocol settings (Energy Range: Low, Efficiency Mode: Normal, Region A: 1.50-35.00, Region B: 1.50-256.00, Count Time (min.): 0.40, Background Subtract: none, Half-Life Correction: no, Quench Indicator: tSIS, Platemap blank subtraction: No, Cross talk reduction: Off).
The % inhibition was calculated for each compound tested [(Compound CPM at maximum concentration-Non-Specific CPM)/Total CPM*100]. The concentration producing 50% inhibition (IC50) was determined using an iterative non-linear curve fitting technique with Activity Base/Xlfit using the following equation:
(§2) where max=total binding, min=non specific binding, x=concentration (M) of the tested compound and n=Hill slope. The inhibition dissociation constant (Ki) of each compound was determined according to the method of Cheng-Prusoff and then converted into negative logarithm (pKi) of the Ki.

[2] = biological target: T2, hSERT transporter (Homo sapiens, UniProt P31645); test: Human serotonin transporter (hSERT) scintillation proximity assay, competition with [3H]-Citalopram
T2 construct: expressed in transfected cells; membranes prepared
Description: Screening for Human Serotonin Transporter (hSERT) Antagonists Using a Scintillation Proximity Assay (SPA)
The screening assay of this example was used to determine the affinity of ligands at the hSERT transporter by competition with [^3H]-Citalopram.
Scintillation Proximity Assay (SPA) works by bringing radioligand within close proximity to the bead's scintillant to stimulate light emission. In this assay, the receptor-containing membranes were pre-coupled to the SPA beads and the binding of the appropriate radioligand to the transporter was measured. The light emission was proportional to the amount of bound radioligand. Unbound radioligand produced no signal as a result of distant proximity to scintillant (lack of energy transfer).
Cells are released from culture flasks using PBS for 1-2 minutes. The cells were subsequently centrifuged at 1000 g's for 5 minutes and resuspended in PBS prior to being used in the membrane preparation.
as §1, with “(7.5×10^9 cells” for “(7.5×10^9cells”, “3 mg/ml” for “3-6 mg/mil”
Compounds of the invention were diluted from 10 mM to 0.1 nM FAC (10 point curves, whole log/half log dilutions) via a Beckman Biomek 2000 using a serial dilution protocol. The test compounds were then transferred (20 μl/well) and the [^3H]-Citalopram radioligand was added at 50 μl/well. Membrane and beads were prepared to a ratio of 10 μg: 0.7 mg, with 0.7 mg PVT-WGA Amersham beads (Cat# RPQ0282V) added per well. 130 μl of the membrane: bead mixture was added to the assay plate.
The % inhibition was calculated for each compound tested [(Compound counts per minute (CPM) at maximum concentration-Non-Specific CPM)/Total CPM*100].
as §2

[3] = biological target: T3, hDAT (Homo sapiens, UniProt Q01959); test: Human dopamine transporter scintillation proximity assay, competition with [3H]-Vanoxerine
T3 construct: expressed in transfected cells; plated whole cells
Method: This assay was used to determine the affinity of ligands for the dopamine transporter by competition with [^3H]-Vanoxerine.
Cells were plated four hours prior to experiment by placing approximately 30,000 cells per well (in PBS) on white, opaque Cell-Tak coated 96 well plates. Extra buffer was apriated from the cell plates using an ELx405 plate washer.
Compounds of the invention were diluted from 10 mM to 0.1 nM FAC (10 point curves, whole log/half log dilutions) via a Beckman Biomek 2000 using a 10-point dilution protocol. The mixtures were allowed to stand at room temperature for 30 minutes, and were then counted on a Packard TopCount LCS, a generic SPA counting protocol settings, Count Time (min.): 0.40, Background Subtract: none, Half-Life Correction: none, Quench Indicator: tSIS, Platemap blank subtraction: none, Cross talk reduction: Off).
The % inhibition was calculated for each compound tested [(Compound CPM at maximum concentration-Non-Specific CPM)/Total CPM*100].
as §2

[4] = Table 1, read-out: pIC50 NET (converted)
[5] = Table 1, read-out: pIC50 SERT (converted)
[6] = Table 1, read-out: pIC50 DAT (converted)

T1 sequence (P23975 whole entry): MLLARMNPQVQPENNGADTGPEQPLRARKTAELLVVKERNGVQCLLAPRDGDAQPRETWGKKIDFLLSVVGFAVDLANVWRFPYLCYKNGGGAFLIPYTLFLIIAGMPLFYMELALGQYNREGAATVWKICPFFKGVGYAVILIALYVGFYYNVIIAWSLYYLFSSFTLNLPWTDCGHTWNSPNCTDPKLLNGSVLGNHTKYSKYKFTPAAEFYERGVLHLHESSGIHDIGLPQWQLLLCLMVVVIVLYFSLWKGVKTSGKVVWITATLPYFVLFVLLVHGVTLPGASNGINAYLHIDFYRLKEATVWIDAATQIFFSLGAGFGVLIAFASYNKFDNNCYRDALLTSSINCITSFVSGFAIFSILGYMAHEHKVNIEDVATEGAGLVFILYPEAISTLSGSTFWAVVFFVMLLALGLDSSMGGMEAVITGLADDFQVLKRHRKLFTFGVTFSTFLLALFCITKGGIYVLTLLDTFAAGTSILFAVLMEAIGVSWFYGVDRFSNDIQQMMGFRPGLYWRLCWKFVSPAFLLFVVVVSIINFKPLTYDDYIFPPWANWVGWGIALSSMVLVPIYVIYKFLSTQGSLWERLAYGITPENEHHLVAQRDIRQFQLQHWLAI
T3 sequence (Q01959 whole entry): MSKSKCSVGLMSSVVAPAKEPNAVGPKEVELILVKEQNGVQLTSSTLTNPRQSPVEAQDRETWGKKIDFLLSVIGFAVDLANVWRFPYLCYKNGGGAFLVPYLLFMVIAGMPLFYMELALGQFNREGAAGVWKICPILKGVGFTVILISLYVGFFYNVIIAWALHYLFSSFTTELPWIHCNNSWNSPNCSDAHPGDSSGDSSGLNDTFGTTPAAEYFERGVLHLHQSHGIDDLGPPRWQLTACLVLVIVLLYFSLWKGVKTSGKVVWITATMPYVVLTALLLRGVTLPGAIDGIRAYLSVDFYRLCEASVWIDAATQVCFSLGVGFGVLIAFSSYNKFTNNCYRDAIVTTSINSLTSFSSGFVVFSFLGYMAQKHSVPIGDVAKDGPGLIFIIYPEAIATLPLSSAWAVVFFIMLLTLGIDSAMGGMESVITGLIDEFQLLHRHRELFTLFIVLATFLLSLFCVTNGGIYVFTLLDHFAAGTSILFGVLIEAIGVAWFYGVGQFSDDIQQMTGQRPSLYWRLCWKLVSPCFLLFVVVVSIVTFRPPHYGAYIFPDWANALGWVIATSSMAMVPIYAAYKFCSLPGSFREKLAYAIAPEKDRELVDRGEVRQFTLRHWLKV
T2 sequence (P31645 whole entry): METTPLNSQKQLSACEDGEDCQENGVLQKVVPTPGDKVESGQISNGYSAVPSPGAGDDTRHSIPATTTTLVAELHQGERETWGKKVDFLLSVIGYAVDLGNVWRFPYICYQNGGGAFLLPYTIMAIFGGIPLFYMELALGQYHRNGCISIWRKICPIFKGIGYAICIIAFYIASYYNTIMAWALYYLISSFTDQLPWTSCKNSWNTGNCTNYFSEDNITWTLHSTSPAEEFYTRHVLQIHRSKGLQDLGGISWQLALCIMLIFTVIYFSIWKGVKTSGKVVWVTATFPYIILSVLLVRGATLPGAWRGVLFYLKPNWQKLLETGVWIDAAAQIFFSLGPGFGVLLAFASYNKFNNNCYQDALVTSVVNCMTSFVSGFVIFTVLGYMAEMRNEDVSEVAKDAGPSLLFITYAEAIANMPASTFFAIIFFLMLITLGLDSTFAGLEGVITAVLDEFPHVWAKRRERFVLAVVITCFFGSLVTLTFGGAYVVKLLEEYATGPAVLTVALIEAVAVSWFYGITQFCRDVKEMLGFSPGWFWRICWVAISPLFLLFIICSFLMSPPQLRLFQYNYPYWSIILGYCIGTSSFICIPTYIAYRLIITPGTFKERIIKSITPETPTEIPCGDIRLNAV

Row | Structure (SMILES) | IC50 [1, 4] | IC50 [2] | IC50 [3] | IC50 [2, 5] | IC50 [3, 6] | IC50 [1]
1 | CC(C)CC1(C(=O)c2ccc(Cl)c(Oc3ccccc3)c2)CCNC1 (stereo not drawn) [Compound 31, (4-Chloro-3-phenoxy-phenyl)-(3-isobutyl-pyrrolidin-3-yl)-methanone] | 1.91 nM | 3.72 nM | 26.3 nM | – | – | –
2 | Cc1cc(C(=O)C2(CCC(C)(C)C)CCNC2)ccc1Cl (stereo not drawn) [Compound 1, (4-Chloro-3-methyl-phenyl)-[3-(3,3-dimethyl-butyl)-pyrrolidin-3-yl]-methanone] | 5.5 nM | 1.51 nM | 6.31 nM | – | – | –
3 | CCCC1(C(=O)c2ccc(Cl)c(S(=O)(=O)c3ccccc3)c2)CCNC1 (stereo not drawn) [Compound 16, (3-Benzenesulfonyl-4-chloro-phenyl)-(3-propyl-pyrrolidin-3-yl)-methanone] | 4900 nM | – | – | 191 nM | 661 nM | –
4 | CCCC1(C(=O)c2ccc(Cl)c(Sc3ccccc3)c2)CCNC1 (stereo not drawn) [Compound 15, (4-Chloro-3-phenylsulfanyl-phenyl)-(3-propyl-pyrrolidin-3-yl)-methanone] | – | 34.7 nM | – | – | 110 nM | 87.1 nM
5 | CCCC1(C(=O)c2ccc(Cl)c(Oc3ccc(F)cc3)c2)CCNC1 (stereo not drawn) [Compound 18, [4-Chloro-3-(4-fluoro-phenoxy)-phenyl]-(3-propyl-pyrrolidin-3-yl)-methanone] | 15.1 nM | 24 nM | 16.6 nM | – | – | –
6 | CCCC1(C(=O)c2ccc(Cl)c(Oc3ccc(C(F)(F)F)cc3)c2)CCNC1 (stereo not drawn) [Compound 32, [4-Chloro-3-(4-trifluoromethyl-phenoxy)-phenyl]-(3-propyl-pyrrolidin-3-yl)-methanone] | 200 nM | – | – | 166 nM | 331 nM | –
7 | O=C(c1ccc(Cl)c(Cl)c1)C1(CC2CCCO2)CCNCC1 (stereo not drawn) [Compound 42, (3,4-Dichloro-phenyl)-[4-(tetrahydro-furan-2-ylmethyl)-piperidin-4-yl]-methanone] | 47.9 nM | 1 nM | 3.63 nM | – | – | –
8 | CC(C)(C)CCC1(C(=O)c2ccc(Cl)c(Cl)c2)CCCNC1 (stereo not drawn) [Compound 56, (3,4-Dichloro-phenyl)-[3-(3,3-dimethyl-butyl)-piperidin-3-yl]-methanone] | 32.4 nM | 17.4 nM | 15.1 nM | – | – | –
9 | O=C(c1ccccc1)C1(Cc2ccc(Cl)c(Cl)c2)CCNCC1 [Compound 43, [4-(3,4-Dichloro-benzyl)-piperidin-4-yl]-phenyl-methanone] | 1510 nM | 75.9 nM | – | – | 575 nM | –
10 | CCCC[C@@]1(C(=O)c2ccc(Cl)c(Cl)c2)CC[C@@H]2CC[C@H]1N2C (mixture of isomers) [Compound 54, ((1R,2R,SR)-2-Butyl-8-methyl-8-aza-bicyclo[3.2.1]oct-2-yl)-(3,4-dichloro-phenyl)-methanone] | 501 nM | 331 nM | 28.2 nM | – | – | –
11 | CC(C)CC1(C(=O)c2cc(F)c(N)c(Cl)c2)CCNC1 (stereo in doubt) [Compound 24, (4-Amino-3-chloro-5-fluoro-phenyl)-((R)-3-isobutyl-pyrrolidin-3-yl)-methanone] | 20 nM | 24.5 nM | 25.1 nM | – | – | –
12 | CC1(CC2(C(=O)c3ccc(Cl)c(Cl)c3)CCNCC2)CC1 [Compound 34, (3,4-Dichloro-phenyl)-[4-(1-methyl-cyclopropylmethyl)-piperidin-4-yl]-methanone] | 66.1 nM | – | – | 0.501 nM | 2.24 nM | –
13 | CC(C)(C)CCOc1cc(C(=O)C2(CCC(C)(C)C)CCNC2)ccc1Cl (stereo not drawn) [Compound 4, [4-Chloro-3-(3,3-dimethyl-butoxy)-phenyl]-[3-(3,3-dimethyl-butyl)-pyrrolidin-3-yl]-methanone] | 912 nM | – | – | 85.1 nM | 1000 nM | –
14 | CCCC1(C(=O)c2ccc(Cl)c(Oc3ccccc3F)c2)CCNC1 (stereo not drawn) [Compound 17, [4-Chloro-3-(2-fluoro-phenoxy)-phenyl]-(3-propyl-pyrrolidin-3-yl)-methanone] | 24 nM | 47.9 nM | 15.8 nM | – | – | –
15 | CC[C@]1(C(=O)c2ccc(Cl)c(Cl)c2)CC[C@@H]2CC[C@H]1N2 [Compound 49, (3,4-Dichloro-phenyl)-((1R,2S,5R)-2-ethyl-8-aza-bicyclo[3.2.1]oct-2-yl)-methanone] | 5130 nM | 631 nM | 1580 nM | – | – | –
16 | CC(C)C[C@@]1(C(=O)c2ccc(N)c(Cl)c2)CCNC1 [Compound 27, (4-Amino-3-chloro-phenyl)-((R)-3-isobutyl-pyrrolidin-3-yl)-methanone] | – | 8.32 nM | – | – | 174 nM | 55 nM
17 | CC(C)CC1(C(=O)c2ccc(Cl)c(Oc3ccccc3)c2)CCNCC1 [Compound 45, (4-Chloro-3-phenoxy-phenyl)-(4-isobutyl-piperidin-4-yl)-methanone] | 2.57 nM | – | – | 2.4 nM | 34.7 nM | –
18 | COC(C)(C)CCC1(C(=O)c2cc(F)c3[nH]ccc3c2)CCNC1 (stereo not drawn) [Compound 6] | 4.79 nM | 1.07 nM | 15.5 nM | – | – | –
19 | CC(C)CC[C@@]1(C(=O)c2cc(F)c(N)c(Cl)c2)CCNC1 [Compound 21, (4-Amino-3-chloro-5-fluoro-phenyl)-[(R)-3-(3-methyl-butyl)-pyrrolidin-3-yl]-methanone] | 1.91 nM | 3.31 nM | 1.51 nM | – | – | –
20 | CC[C@@]1(C(=O)c2ccc(Cl)c(Cl)c2)CC[C@@H]2CC[C@H]1N2 [Compound 48, (3,4-Dichloro-phenyl)-((1R,2R,5R)-2-ethyl-8-aza-bicyclo[3.2.1]oct-2-yl)-methanone] | 1150 nM | 7.76 nM | 209 nM | – | – | –
21 | CC(C)C[C@@]1(C(=O)c2ccc(Cl)c(Cl)c2N)CCNC1 [Compound 2, (2-Amino-3,4-dichloro-phenyl)-((R)-3-isobutyl-pyrrolidin-3-yl)-methanone] | – | 2.19 nM | – | – | 692 nM | 38 nM
